Source: patent US12202835B2, “Substituted aromatic ring-linked dioxinoquinazolines and dioxinoquinolines as kinase inhibitors” (BEIJING SCITECH-MQ PHARMACEUTICALS LIMITED, priority 2018, dated 2025)

Assays:
c-MET kinase = c-MET kinase (Homo sapiens (Human), UniProt P08581); assay: Assay of small molecular compounds for inhibiting the activity of c-MET kinase (LANCE TR-FRET); assay type: biochemical; conditions: read-out: CMET IC50
Method in brief: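 LANCE TR-FRET assay with c-MET at 1 nM final after a 5 min room-temperature preincubation with compound (11-point, 3-fold series, 2500–0.042 nM final, 4% DMSO). ULight-JAK-1 (Tyr1023) peptide (100 nM final) and ATP (10 μM final) reacted 60 min in the dark. Inhibition was taken relative to controls, then IC50 fitted.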

MER kinase = MER kinase (Homo sapiens (Human), UniProt Q12866); assay: Assay of small molecular compounds for inhibiting the activity of MER kinase (LANCE TR-FRET); assay type: biochemical
Sequence of MER kinase (Q12866 21-999): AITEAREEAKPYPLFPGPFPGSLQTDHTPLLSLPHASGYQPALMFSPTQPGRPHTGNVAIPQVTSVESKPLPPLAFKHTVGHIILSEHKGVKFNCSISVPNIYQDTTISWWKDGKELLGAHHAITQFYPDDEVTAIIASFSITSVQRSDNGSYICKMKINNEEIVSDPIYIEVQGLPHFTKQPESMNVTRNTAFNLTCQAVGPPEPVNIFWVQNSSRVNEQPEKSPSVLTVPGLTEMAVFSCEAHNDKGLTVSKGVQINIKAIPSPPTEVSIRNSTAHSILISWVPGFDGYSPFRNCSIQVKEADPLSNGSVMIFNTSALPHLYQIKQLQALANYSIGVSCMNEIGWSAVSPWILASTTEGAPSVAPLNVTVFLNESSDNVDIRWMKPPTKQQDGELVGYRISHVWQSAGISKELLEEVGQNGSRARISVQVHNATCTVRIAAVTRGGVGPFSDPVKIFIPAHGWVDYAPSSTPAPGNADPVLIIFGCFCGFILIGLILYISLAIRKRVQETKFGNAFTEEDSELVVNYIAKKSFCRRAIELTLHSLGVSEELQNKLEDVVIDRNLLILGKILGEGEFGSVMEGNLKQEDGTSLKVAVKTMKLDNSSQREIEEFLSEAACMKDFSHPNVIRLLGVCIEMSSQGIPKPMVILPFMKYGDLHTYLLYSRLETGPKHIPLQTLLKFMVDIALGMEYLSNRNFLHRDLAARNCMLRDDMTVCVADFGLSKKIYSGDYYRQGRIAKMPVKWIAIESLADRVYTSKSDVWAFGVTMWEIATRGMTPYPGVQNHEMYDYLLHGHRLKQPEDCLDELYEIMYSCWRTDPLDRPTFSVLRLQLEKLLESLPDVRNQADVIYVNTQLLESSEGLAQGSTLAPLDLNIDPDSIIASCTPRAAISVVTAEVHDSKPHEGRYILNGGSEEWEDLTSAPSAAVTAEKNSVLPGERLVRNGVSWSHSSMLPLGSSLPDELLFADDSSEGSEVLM
Method in brief: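 MER kinase preincubated 5 min at RT with compound (11 points, 0.042-2500 nM final), then ULight-poly GT and ATP added (4× stocks 200 nM and 20 μM) for 60 min at RT, 1% DMSO. Phosphorylation detected by LANCE TR-FRET; IC50 from % inhibition versus controls.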

Sequence of c-MET kinase (P08581 25-1390): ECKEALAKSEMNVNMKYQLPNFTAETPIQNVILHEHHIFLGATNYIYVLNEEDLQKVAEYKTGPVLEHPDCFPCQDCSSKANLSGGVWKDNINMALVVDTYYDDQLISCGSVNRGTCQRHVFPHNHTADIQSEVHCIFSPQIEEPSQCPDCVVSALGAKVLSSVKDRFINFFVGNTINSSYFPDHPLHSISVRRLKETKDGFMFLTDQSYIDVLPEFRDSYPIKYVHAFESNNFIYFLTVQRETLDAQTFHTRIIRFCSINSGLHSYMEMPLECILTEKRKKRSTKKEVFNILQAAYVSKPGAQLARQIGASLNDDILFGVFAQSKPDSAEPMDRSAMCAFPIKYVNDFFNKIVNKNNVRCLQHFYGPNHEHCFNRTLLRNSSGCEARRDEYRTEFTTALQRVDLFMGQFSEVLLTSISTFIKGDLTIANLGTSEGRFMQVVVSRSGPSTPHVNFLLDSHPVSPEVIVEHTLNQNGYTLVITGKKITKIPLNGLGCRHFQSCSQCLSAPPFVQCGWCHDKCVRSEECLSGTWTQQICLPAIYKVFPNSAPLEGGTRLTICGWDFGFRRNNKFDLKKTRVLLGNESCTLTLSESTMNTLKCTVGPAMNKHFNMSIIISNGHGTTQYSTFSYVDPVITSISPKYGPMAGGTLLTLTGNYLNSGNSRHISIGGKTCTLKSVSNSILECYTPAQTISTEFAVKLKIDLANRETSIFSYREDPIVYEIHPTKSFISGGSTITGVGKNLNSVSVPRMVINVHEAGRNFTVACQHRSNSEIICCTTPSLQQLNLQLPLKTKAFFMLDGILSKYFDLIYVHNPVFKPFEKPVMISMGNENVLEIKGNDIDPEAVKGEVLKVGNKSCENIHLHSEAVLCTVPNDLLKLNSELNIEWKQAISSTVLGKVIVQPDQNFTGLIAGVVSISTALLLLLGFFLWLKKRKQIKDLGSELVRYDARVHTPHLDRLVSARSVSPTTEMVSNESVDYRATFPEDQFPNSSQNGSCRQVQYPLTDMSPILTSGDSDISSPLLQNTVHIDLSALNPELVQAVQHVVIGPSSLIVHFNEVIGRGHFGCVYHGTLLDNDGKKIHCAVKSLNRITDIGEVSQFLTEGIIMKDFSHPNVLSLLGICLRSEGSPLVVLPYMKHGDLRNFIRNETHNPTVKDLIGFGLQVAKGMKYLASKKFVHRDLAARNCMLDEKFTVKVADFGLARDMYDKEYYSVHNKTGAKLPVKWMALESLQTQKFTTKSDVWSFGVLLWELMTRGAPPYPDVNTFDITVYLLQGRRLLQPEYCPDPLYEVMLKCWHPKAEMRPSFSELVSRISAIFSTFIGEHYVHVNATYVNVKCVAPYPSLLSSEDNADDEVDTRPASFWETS

SMILES | IC50 (c-MET kinase) | IC50 (MER kinase)
COCCn1cc(C(=O)Nc2ccc(Oc3ccnc4cc(OC)c5c(c34)OCCO5)c(F)c2)c(=O)n(-c2ccc(F)cc2)c1=O [Example 46, N-(3-fluoro-4-((5-methoxy-2,3-dihydro-[1,4]dioxino[2,3-f]quinolin-10-yl)oxy)phenyl)-3-(4-fluorophenyl)-1-(2-methoxyethyl)-2,4-dioxo-1,2,3,4-tetrahydropyrimidine-5-carboxamide] | ≤ 50 nM | ≤ 50 nM
CCOc1ccn(-c2ccc(F)cc2)c(=O)c1C(=O)Nc1ccc(Oc2ccnc3cc(OCCCN4CCOCC4)c4c(c23)OCCO4)c(Cl)c1 [Example 72, N-(4-((5-(3-morpholinopropoxy)-2,3-dihydro-[1,4]dioxino[2,3-f]quinolin-10-yl)oxy)-3-chlorophenyl)-4-ethoxy-1-(4-fluorophenyl)-2-oxo-1,2-dihydropyridine-3-carboxamide] | ≤ 50 nM | ≤ 50 nM
COc1cc2ncnc(Oc3ccc(NC(=O)c4c(OC)ccn(-c5ccc(F)cc5)c4=O)cc3F)c2c2c1OCCO2 [Example 2, N-(3-fluoro-4-((5-methoxy-2,3-dihydro-[1,4]dioxino[2,3-f]quinazolin-10-yl)oxy)phenyl)-1-(4-fluorophenyl)-4-methoxy-2-oxo-1,2-dihydropyridine-3-carboxamide] | ≤ 50 nM | ≤ 50 nM
CCOc1ccn(-c2ccc(F)cc2)c(=O)c1C(=O)Nc1ccc(Oc2ccnc3cc(OCCCO)c4c(c23)OCCO4)c(F)c1 [Example 54, N-(4-((5-(3-hydroxypropoxy)-2,3-dihydro-[1,4]dioxino[2,3-f]quinolin-10-yl)oxy)-3-fluorophenyl)-4-ethoxy-1-(4-fluorophenyl)-2-oxo-1,2-dihydropyridine-3-carboxamide] | ≤ 50 nM | ≤ 50 nM
Cn1cc(C(=O)Nc2ccc(Oc3ccnc4cc(OC5CCOCC5)c5c(c34)OCCO5)c(F)c2)c(=O)n(-c2ccc(F)cc2)c1=O [Example 91, N-(3-fluoro-4-((5-((tetrahydropyran-4-yl)oxy)-2,3-dihydro-[1,4]dioxino[2,3-f]quinolin-10-yl)oxy)phenyl)-3-(4-fluorophenyl)-1-methyl-2,4-dioxo-1,2,3,4-tetrahydropyrimidine-5-carboxamide] | ≤ 50 nM | ≤ 50 nM
CCOc1ccn(-c2ccc(F)cc2)c(=O)c1C(=O)Nc1ccc(Oc2ccnc3cc(OCCCC#N)c4c(c23)OCCO4)c(F)c1 [Example 57, N-(4-((5-(3-cyanopropoxy)-2,3-dihydro-[1,4]dioxino[2,3-f]quinolin-10-yl)oxy)-3-fluorophenyl)-4-ethoxy-1-(4-fluorophenyl)-2-oxo-1,2-dihydropyridine-3-carboxamide] | ≤ 50 nM | ≤ 50 nM
CCOc1ccn(-c2ccc(F)cc2)c(=O)c1C(=O)Nc1ccc(Oc2ccnc3cc(OCCCN4CCN(C(C)=O)CC4)c4c(c23)OCCO4)c(F)c1 [Example 50, N-(4-((5-(3-(4-acetyl-piperazin-1-yl)propoxy)-2,3-dihydro-[1,4]dioxino[2,3-f]quinolin-10-yl)oxy)-3-fluorophenyl)-4-ethoxy-1-(4-fluorophenyl)-2-oxo-1,2-dihydropyridine-3-carboxamide] | ≤ 50 nM | ≤ 50 nM
CC(C)Oc1cc2nccc(Oc3ccc(NC(=O)c4cn(C)c(=O)n(-c5ccc(F)cc5)c4=O)cc3F)c2c2c1OCCO2 [Example 88, N-(3-fluoro-4-((5-isopropoxy-2,3-dihydro-[1,4]dioxino[2,3-f]quinolin-10-yl)oxy)phenyl)-3-(4-fluorophenyl)-1-methyl-2,4-dioxo-1,2,3,4-tetrahydropyrimidine-5-carboxamide] | ≤ 50 nM | ≤ 50 nM
CCOc1cc2nccc(Oc3ccc(NC(=O)c4c(OCC)ccn(-c5ccc(F)cc5)c4=O)cc3F)c2c2c1OCCO2 [Example 62, N-(4-((5-ethoxy-2,3-dihydro-[1,4]dioxino[2,3-f]quinolin-10-yl)oxy)-3-fluorophenyl)-4-ethoxy-1-(4-fluorophenyl)-2-oxo-1,2-dihydropyridine-3-carboxamide] | ≤ 50 nM | ≤ 50 nM
CCOc1ccn(-c2ccc(F)cc2)c(=O)c1C(=O)Nc1ccc(Oc2ccnc3cc(OCC(C)C)c4c(c23)OCCO4)c(F)c1 [Example 58, N-(4-((5-(isobutyloxy)-2,3-dihydro-[1,4]dioxino[2,3-f]quinolin-10-yl)oxy)-3-fluorophenyl)-4-ethoxy-1-(4-fluorophenyl)-2-oxo-1,2-dihydropyridine-3-carboxamide] | ≤ 50 nM | ≤ 50 nM
CCOc1ccn(-c2ccc(F)cc2)c(=O)c1C(=O)Nc1ccc(Oc2ccnc3cc(OCCCN4CCN(C)CC4)c4c(c23)OCCO4)c(F)c1 [Example 49, N-(3-fluoro-4-((5-(3-(4-methylpiperazin-1-yl)propoxy)-2,3-dihydro-[1,4]dioxino[2,3-f]quinolin-10-yl)oxy)phenyl)-1-(4-fluorophenyl)-4-ethoxy-2-oxo-1,2-dihydropyridine-3-carboxamide] | ≤ 50 nM | ≤ 50 nM
CC(C)n1cc(C(=O)Nc2ccc(Oc3ccnc4cc(OCCCN5CCC(C)(C)CC5)c5c(c34)OCCO5)c(F)c2)c(=O)n(-c2ccc(F)cc2)c1=O [Example 92, N-(3-fluoro-4-((5-(3-(4,4-dimethylpiperidin-1-yl)propoxy)-2,3-dihydro-[1,4]dioxino[2,3-f]quinolin-10-yl)oxy)phenyl)-3-(4-fluorophenyl)-1-isopropyl-2,4-dioxo-1,2,3,4-tetrahydropyrimidine-5-carboxamide] | 50 to 500 nM | ≤ 50 nM
CCOc1ccn(-c2ccc(F)cc2)c(=O)c1C(=O)Nc1ccc(Oc2ccnc3cc(OCC#N)c4c(c23)OCCO4)c(F)c1 [Example 56, N-(4-((5-(cyanomethoxy)-2,3-dihydro-[1,4]dioxino[2,3-f]quinolin-10-yl)oxy)-3-fluorophenyl)-4-ethoxy-1-(4-fluorophenyl)-2-oxo-1,2-dihydropyridine-3-carboxamide] | ≤ 50 nM | ≤ 50 nM
CC(C)n1cc(C(=O)Nc2ccc(Oc3ccnc4cc(OCCCN5CCC(C)(N)CC5)c5c(c34)OCCO5)c(F)c2)c(=O)n(-c2ccc(F)cc2)c1=O [Example 93, N-(3-fluoro-4-((5-(3-(4-amino-4-methylpiperidin-1-yl)propoxy)-2,3-dihydro-[1,4]dioxino[2,3-f]quinolin-10-yl)oxy)phenyl)-3-(4-fluorophenyl)-1-isopropyl-2,4-dioxo-1,2,3,4-tetrahydropyrimidine-5-carboxamide] | ≤ 50 nM | ≤ 50 nM
CCOc1ccn(-c2ccc(F)cc2)c(=O)c1C(=O)Nc1ccc(Oc2ccnc3cc(OCCCN4CCC(C)(C)CC4)c4c(c23)OCCO4)c(F)c1 [Example 67, N-(4-((5-(3-(4,4-dimethylpiperidin-1-yl)propoxy)-2,3-dihydro-[1,4]dioxino[2,3-f]quinolin-10-yl)oxy)-3-fluorophenyl)-4-ethoxy-1-(4-fluorophenyl)-2-oxo-1,2-dihydropyridine-3-carboxamide] | ≤ 50 nM | ≤ 50 nM
CCOc1ccn(-c2ccc(F)cc2)c(=O)c1C(=O)Nc1ccc(Oc2ccnc3cc(OCCCN(C)CCOC)c4c(c23)OCCO4)c(F)c1 [Example 70, N-(4-((5-(3-((2-methoxyethyl)(methyl)amino)propoxy)-2,3-dihydro-[1,4]dioxino[2,3-f]quinolin-10-yl)oxy)-3-fluorophenyl)-4-ethoxy-1-(4-fluorophenyl)-2-oxo-1,2-dihydropyridine-3-carboxamide] | ≤ 50 nM | ≤ 50 nM
